Measured values taken from ChEMBL document CHEMBL3822366, “Design, synthesis and anticancer activity of novel hybrid compounds between benzofuran and N-aryl piperazine” (Bioorg Med Chem Lett, 2016).
pIC50: −log10 of the molar value.

Tests used:
A549 = assay: Cytotoxicity against human A549 cells after 48 hrs by MTT assay; assay type: functional, cell-based; settings: A549, 48 h
[1] = Cytotoxicity against human SGC7901 cells after 48 hrs by MTT assay; assay type: functional, cell-based; settings: SGC-7901, 48 h
HeLa = assay: Cytotoxicity against human HeLa cells after 48 hrs by MTT assay; assay type: functional, cell-based
MCF7 = assay: Cytotoxicity against human MCF7 cells after 48 hrs by MTT assay; assay type: functional, cell-based; settings: MCF7, 48 h
[2] = Cytotoxicity against human L02 cells at <40 uM after 48 hrs by MTT assay; assay type: cell-based; settings: l02, 48 h

SMILES	pIC50 (A549)	pIC50 [1]	pIC50 (HeLa)	pIC50 (MCF7)	Activity [2]
CCN(CC)c1ccc2cc(C(=O)c3ccc(N4CCN(C(=O)c5ccc([N+](=O)[O-])c([N+](=O)[O-])c5)CC4)cc3)oc2c1	< 4.40	< 4.40	4.60	4.71	–
CCN(CC)c1ccc2cc(C(=O)c3ccc(N4CCN(S(=O)(=O)c5ccc(Br)c(F)c5)CC4)cc3)oc2c1	4.82	< 4.40	4.68	5.64	–
CCN(CC)c1ccc2cc(C(=O)c3ccc(N4CCN(S(=O)(=O)c5ccc(C(F)(F)F)cc5)CC4)cc3)oc2c1	4.96	6.77	5.01	< 4.40	–
CCN(CC)c1ccc2cc(C(=O)c3ccc(N4CCN(C(=O)c5cccc(C(F)(F)F)c5)CC4)cc3)oc2c1	5.03	4.95	6.40	4.47	–
CCN(CC)c1ccc2cc(C(=O)c3ccc(N4CCN(S(=O)(=O)c5ccc([N+](=O)[O-])cc5)CC4)cc3)oc2c1	4.61	5.73	< 4.40	< 4.40	–
CCN(CC)c1ccc2cc(C(=O)c3ccc(N4CCN(S(C)(=O)=O)CC4)cc3)oc2c1	< 4.40	< 4.40	< 4.40	< 4.40	–
CCN(CC)c1ccc2cc(C(=O)c3ccc(N4CCN(S(=O)(=O)c5ccc(F)cc5)CC4)cc3)oc2c1	4.79	< 4.40	4.67	4.66	–
CCN(CC)c1ccc2cc(C(=O)c3ccc(N4CCN(C(=O)c5ccccc5)CC4)cc3)oc2c1	< 4.40	< 4.40	4.82	< 4.40	–
CCN(CC)c1ccc2cc(C(=O)c3ccc(N4CCN(C(C)=O)CC4)cc3)oc2c1	4.52	4.59	5.29	4.79	–
CCN(CC)c1ccc2cc(C(=O)c3ccc(N4CCN(C(=O)c5ccccc5Cl)CC4)cc3)oc2c1	5.21	4.92	6.47	4.58	–
CCN(CC)c1ccc2cc(C(=O)c3ccc(N4CCN(C(=O)c5ccc(Br)cc5F)CC4)cc3)oc2c1	4.69	4.87	6.28	< 4.40	–
CCN(CC)c1ccc2cc(C(=O)c3ccc(N4CCN(C(=O)c5ccc(Cl)c(Cl)c5)CC4)cc3)oc2c1	6.66	5.23	4.82	5.09	–
CCOC(=O)N1CCN(c2ccc(C(=O)c3cc4ccc(N(CC)CC)cc4o3)cc2)CC1	< 4.40	< 4.40	4.69	< 4.40	–
CCN(CC)c1ccc2cc(C(=O)c3ccc(N4CCN(S(=O)(=O)c5ccc(Br)cc5)CC4)cc3)oc2c1	4.46	< 4.40	< 4.40	4.58	–
CCN(CC)c1ccc2cc(C(=O)c3ccc(N4CCN(S(=O)(=O)c5ccc(C)cc5)CC4)cc3)oc2c1	< 4.40	< 4.40	4.42	< 4.40	–
CCN(CC)c1ccc2cc(C(=O)c3ccc(N4CCN(C(=O)COc5ccc(Cl)cc5Cl)CC4)cc3)oc2c1	5.24	5.21	7.52	4.91	Non-toxic
